Measurements from patent US4333938A, “Imino derivatives of 5-aminobenzodioxole-1,3 which are useful as medicaments” (Laboratoires Sarget, priority 1979, dated 1982).
Values joined by “and” are separate entries in the source; they are usually repeats but may differ in a detail not shown here. Equal entries are not always repeated.

Key:
[1] = tested on: carageenan-induced edema; experiment: inhibition of carrageenan-induced edema; type: in vivo, male Wistar rat; conditions: oral
Procedure: The inflammation is produced in the male Wistar rat by injection of 0.1 ml of a 0.5% suspension of carageenan in physiological serum, into the muscular fascia of the metatarsal region of the hind foot of the animal. The test substance is administered orally at the same time as the carageenan or 30 or 60 min before carageenan. The edema is measured by plethysmometry three hours after the adminstration of the carrageenan.

[2] = oral toxicity (mortality) in the mouse; conditions: in vivo, Swiss mice
Procedure: The percentages of mortality produced by the compounds of this invention when administered orally to Swiss mice are shown in Table 1. The animals, free from specific pathogenic organisms were housed in an air conditioned room for 24 to 48 hours before the start of the experiment. They were separated into groups of 5 males and 5 females. The materials were administered to animals which had been fasted for 24 hours by means of a gastric tube in suspension in a 6% thickened julep using a volume equivalent to 0.1 ml per 10 g of body weight. […] They remained under observation for two weeks before being sacrificed and autopsied.

[3] = tested on: phenylbenzoquinone (PBQ); experiment: analgesic activity, phenylbenzoquinone (PBQ) challenge; type: in vivo; conditions: male Swiss mouse, oral; for ED50: method of Lichfield and Wilcoxon
Procedure: The analgesic activity was determined in the male Swiss mouse using phenylbenzoquinone (PBQ) as the challenging agent (variation of the method of Siegmund et al, Proc. Soc. Exp. Biol. Med. […], 95, 729-31). […] The ED50 was determined by the method of Lichfield and Wilcoxon.

[4] = tested on: carrageenan-induced granulomas; experiment: activity on carrageenan-induced granulomas; type: in vivo, Male Wistar rats
Procedure: Male Wistar rats weighing 130 to 150 grams were given a subcutaneous injection in the central part of the skin of the back of 0.5 ml of an aqueous suspension of carrageenan. Two doses of the test substance are administered, one 30 minutes before and the other 6 hours after carrageenan. At the end of 24 hours the rats were sacrificed and the granulomas were removed and weighed before and after drying for 24 hours at 50° C. The difference in weight of the granulomas wet and dry represents the exudate
These AD50 are respectively 175(142-215) and 175(150-205) mg/kg.

[5] = solubility in water; type: physicochemical
[6] = tested on: cotton pellet granulomas; experiment: inhibition of cotton pellet granulomas; type: in vivo, male Sprague-Dawley rats; conditions: oral, daily for 10 days
Procedure: Two cotton pellets weighing 70 mg were implanted under the back skin of male Sprague-Dawley rats anesthetized with ether. Starting the next day, the compound was administered orally daily for 10 days. The rats were sacrificed and the pellets were removed and weighed before and after drying at 50° C. for 24 hours. The weights used were those obtained after deduction of the weight of the implants. The average of the quantities so calculated was determined for each group and compared to the averages of the control group.

[7] = tested on: stomachs; experiment: ulcerogenic activity; type: in vivo, female Wistar rat
Procedure: The ulcerogenic activity was determined in the female Wistar rat using a variation of the procedure described by J. M. Lwoff, J. Pharmacol. 1971, 3, 1, 81-3. The test substance was administered daily for 3 days to the animals maintained on a aqueous diet. The stomachs were removed after 1, 2, and 3 days of treatment and the ulcerations were classified from 0 to 4. The ulceration index is calculated for each group of animals as the product (average of the classes x the percentage of animals afflicted), while distinguishing acute ulcerations from ulcers which were in the process of healing.

[8] = tested on: blood sugar level; experiment: antidiabetic activity, blood sugar level in streptozotocin hyperglycemic rats; type: in vivo, Female rats; set-up: key: NS: the difference between the blood sugar level in the treated animals and the control animals is not significant; the difference is significant by Student's test at p≤0.05; conditions: oral
Procedure: Female rats weighing 180-200 grams were given an intraperitoneal dose on day J0 of 100 mg/kg of streptozotocin in a 0.05 M citrate buffer at a pH of 4.5 calculated as 0.5 ml per 100 g of body weight. On day J2 hyperglycemic animals were selected by determining the blood sugar level by the orthotoludine method in a stream continuously removed from the retroorbital sinus. […] On day J3, without previous fasting, the selected animals received the treatment. This consisted of oral administration of the test compound in a 6% aqueous suspension of gum arabic at a volume of 0.5 ml per 100 g of body weight.
The animals were sacrificed one, two, or four hours after the treatment and their blood sugar levels were determined. Each group of animals was compared to a control group of animals which received only the suspension of gum arabic. Metformin was the substance chosen as the control.
The results are given in Table 8 which indicates the percentage of decrease in the blood sugar level produced by the treatment.

Compound: CC(=O)Oc1ccccc1C(=O)O [Aspirin, reference compound]
- % inhibiting activity on carrageenan-induced edema ([1]; at To, 75 mg/kg): 40%
- % inhibiting activity on carrageenan-induced edema ([1]; at To, 150 mg/kg): 46%
- % inhibiting activity on carrageenan-induced edema ([1]; at To, 300 mg/kg): 68%
- % inhibiting activity on carrageenan-induced edema ([1]; at To, 450 mg/kg): 64%

Compound: C(=Nc1ccc2c(c1)OCO2)c1cccs1 [Example 1, N-thienylidene-5-aminobenzodioxole-1,3]
- mortality at 336 h ([2]; 1000 mg/kg): 0%
- mortality at 336 h ([2]; 1500 mg/kg): 20%
- mortality at 336 h ([2]; 2000 mg/kg): 60%
- mortality at 336 h ([2]; 3000 mg/kg): 70%
- % analgesic activity ([3]; 100 mg/kg): 34%
- % analgesic activity ([3]; 125 mg/kg): 43%
- % analgesic activity ([3]; 150 mg/kg): 69%
- % analgesic activity ([3]; 200 mg/kg): 73%
- ED50 [3]: 130 mg/kg
- % inhibiting activity on carrageenan-induced edema ([1]; at To (same time as carrageenan), 25 mg/kg): 19%
- % inhibiting activity on carrageenan-induced edema ([1]; at To, 50 mg/kg): 41%
- % inhibiting activity on carrageenan-induced edema ([1]; at To, 100 mg/kg): 52%
- % inhibiting activity on carrageenan-induced edema ([1]; at To, 200 mg/kg): 56%
- % inhibiting activity on carrageenan-induced edema ([1]; at To, 400 mg/kg): 58%
- Exudate, % activity ([4]; 200 mg/kg administered twice): 6%
- Exudate, % animals 30% protected ([4]; 200 mg/kg administered twice): 12.5%
- Weight of dry granuloma, % activity ([4]; 200 mg/kg administered twice): 1%
- Weight of dry granuloma, % animals 30% protected ([4]; 200 mg/kg administered twice): 12.5%
- Weight of wet granuloma, % activity ([4]; 200 mg/kg administered twice): 6%
- Weight of wet granuloma, % animals 30% protected ([4]; 200 mg/kg administered twice): 12.5%
- solubility in water [5]: insoluble in water

Compound: Cc1ccsc1C=Nc1ccc2c(c1)OCO2 [Example 4, N-(3-methyl-2-thienylidene)-5-aminobenzodioxole-1,3]
- mortality at 336 h ([2]; 750 mg/kg): 10%
- mortality at 336 h ([2]; 1000 mg/kg): 10%
- mortality at 336 h ([2]; 1500 mg/kg): 60%
- mortality at 336 h ([2]; 1750 mg/kg): 20%
- mortality at 336 h ([2]; 2000 mg/kg): 20%
- % analgesic activity ([3]; 75 mg/kg): 21%
- % analgesic activity ([3]; 100 mg/kg): 40%
- % analgesic activity ([3]; 150 mg/kg): 37%
- % analgesic activity ([3]; 200 mg/kg): 62%
- % analgesic activity ([3]; 300 mg/kg): 67%
- ED50 [3]: 170 mg/kg
- % inhibiting activity on carrageenan-induced edema ([1]; at To, 75 mg/kg): 35%
- % inhibiting activity on carrageenan-induced edema ([1]; at To, 150 mg/kg): 35%
- % inhibiting activity on carrageenan-induced edema ([1]; at To, 300 mg/kg): 68%
- Exudate, % activity ([4]; 100 mg/kg administered twice): 21%
- Exudate, % animals 30% protected ([4]; 100 mg/kg administered twice): 38%
- Weight of dry granuloma, % activity ([4]; 100 mg/kg administered twice): 16%
- Weight of dry granuloma, % animals 30% protected ([4]; 100 mg/kg administered twice): 31%
- Weight of wet granuloma, % activity ([4]; 100 mg/kg administered twice): 20.5%
- Weight of wet granuloma, % animals 30% protected ([4]; 100 mg/kg administered twice): 38%
- Exudate, % activity ([4]; 200 mg/kg administered twice): 34.5%
- Exudate, % animals 30% protected ([4]; 200 mg/kg administered twice): 71%
- Weight of dry granuloma, % activity ([4]; 200 mg/kg administered twice): 31%
- Weight of dry granuloma, % animals 30% protected ([4]; 200 mg/kg administered twice): 64%
- Weight of wet granuloma, % activity ([4]; 200 mg/kg administered twice): 34%
- Weight of wet granuloma, % animals 30% protected ([4]; 200 mg/kg administered twice): 71%
- Exudate, % activity ([4]; 300 mg/kg administered twice): 44.5%
- Exudate, % animals 30% protected ([4]; 300 mg/kg administered twice): 75%
- Weight of dry granuloma, % activity ([4]; 300 mg/kg administered twice): 42.5%
- Weight of dry granuloma, % animals 30% protected ([4]; 300 mg/kg administered twice): 67%
- Weight of wet granuloma, % activity ([4]; 300 mg/kg administered twice): 44.5%
- Weight of wet granuloma, % animals 30% protected ([4]; 300 mg/kg administered twice): 75%
- % inhibition with respect to dry pellets ([6]; dose 150): 10%
- % inhibition with respect to wet pellets ([6]; dose 150): 13%
- % inhibition with respect to dry pellets ([6]; dose 300): 19%
- % inhibition with respect to wet pellets ([6]; dose 300): 14%
- Ulceration Index, acute ([7]; 150 mg/kg daily, Day 1): 0
- Ulceration Index, healing ([7]; 150 mg/kg daily, Day 1): 0
- Ulceration Index, acute ([7]; 150 mg/kg daily, Day 2): 0
- Ulceration Index, healing ([7]; 150 mg/kg daily, Day 2): 8
- Ulceration Index, acute ([7]; 150 mg/kg daily, Day 3): 72
- Ulceration Index, healing ([7]; 150 mg/kg daily, Day 3): 16
- solubility in water [5]: insoluble in water

Compound: CN(C)C(=N)N=C(N)N [Metformin, reference compound]
- Percentage Decrease in the Blood Sugar ([8]; 200 mg/kg, treatment 1 h before sacrificing): NS
- Percentage Decrease in the Blood Sugar ([8]; 200 mg/kg, treatment 2 h before sacrificing): NS
- Percentage Decrease in the Blood Sugar ([8]; 200 mg/kg, treatment 4 h before sacrificing): NS
- Percentage Decrease in the Blood Sugar ([8]; 400 mg/kg, treatment 1 h before sacrificing): 14%
- Percentage Decrease in the Blood Sugar ([8]; 400 mg/kg, treatment 2 h before sacrificing): NS
- Percentage Decrease in the Blood Sugar ([8]; 400 mg/kg, treatment 4 h before sacrificing): 15%

Compound: O=C(O)c1cccnc1Nc1cccc(C(F)(F)F)c1 [Niflumic Acid, reference compound]
- % inhibiting activity on carrageenan-induced edema ([1]; at To, 75 mg/kg): 37%
- % inhibiting activity on carrageenan-induced edema ([1]; at To, 100 mg/kg): 27%
- % inhibiting activity on carrageenan-induced edema ([1]; at To, 125 mg/kg): 40%
- % inhibiting activity on carrageenan-induced edema ([1]; at To, 150 mg/kg): 37% and 59%
- Exudate, % activity ([4]; 25 mg/kg administered twice): 42.5%
- Exudate, % animals 30% protected ([4]; 25 mg/kg administered twice): 100%
- Weight of dry granuloma, % activity ([4]; 25 mg/kg administered twice): 41.5%
- Weight of dry granuloma, % animals 30% protected ([4]; 25 mg/kg administered twice): 87%
- Weight of wet granuloma, % activity ([4]; 25 mg/kg administered twice): 42.5%
- Weight of wet granuloma, % animals 30% protected ([4]; 25 mg/kg administered twice): 100%
- % inhibition with respect to dry pellets ([6]; dose 50): 12%
- % inhibition with respect to wet pellets ([6]; dose 50): 3%
- Ulceration Index, acute ([7]; 100 mg/kg daily, Day 1): 330
- Ulceration Index, healing ([7]; 100 mg/kg daily, Day 1): 0
- Ulceration Index, acute ([7]; 100 mg/kg daily, Day 2): 1
- Ulceration Index, healing ([7]; 100 mg/kg daily, Day 2): 400
- Ulceration Index, acute ([7]; 100 mg/kg daily, Day 3): 119
- Ulceration Index, healing ([7]; 100 mg/kg daily, Day 3): 378
